Reference: ChEMBL document CHEMBL4507300 (2021)

Key:
[1] = molecular target: Atypical kinase COQ8B, mitochondrial (Homo sapiens) (UniProt Q96D53); settings: Compound concentration 1000.0 nM
[2] = molecular target: ALK tyrosine kinase receptor (Homo sapiens) (UniProt Q9UM73); settings: Compound concentration 1000.0 nM
[3] = molecular target: Tyrosine-protein kinase BTK (Homo sapiens) (UniProt Q06187); settings: Compound concentration 1000.0 nM
[4] = molecular target: Calcium/calmodulin-dependent protein kinase type IV (Homo sapiens) (UniProt Q16566); settings: Compound concentration 1000.0 nM
[5] = molecular target: Cyclin-dependent kinase 19 (Homo sapiens) (UniProt Q9BWU1); settings: Compound concentration 1000.0 nM
[6] = molecular target: Cyclin-dependent kinase 4 (Homo sapiens) (UniProt P11802); settings: Compound concentration 1000.0 nM
[7] = molecular target: Dual specificity protein kinase CLK2 (Homo sapiens) (UniProt P49760); settings: Compound concentration 1000.0 nM
Chain of Dual specificity protein kinase CLK2 (Homo sapiens) (P49760 whole entry, looked up): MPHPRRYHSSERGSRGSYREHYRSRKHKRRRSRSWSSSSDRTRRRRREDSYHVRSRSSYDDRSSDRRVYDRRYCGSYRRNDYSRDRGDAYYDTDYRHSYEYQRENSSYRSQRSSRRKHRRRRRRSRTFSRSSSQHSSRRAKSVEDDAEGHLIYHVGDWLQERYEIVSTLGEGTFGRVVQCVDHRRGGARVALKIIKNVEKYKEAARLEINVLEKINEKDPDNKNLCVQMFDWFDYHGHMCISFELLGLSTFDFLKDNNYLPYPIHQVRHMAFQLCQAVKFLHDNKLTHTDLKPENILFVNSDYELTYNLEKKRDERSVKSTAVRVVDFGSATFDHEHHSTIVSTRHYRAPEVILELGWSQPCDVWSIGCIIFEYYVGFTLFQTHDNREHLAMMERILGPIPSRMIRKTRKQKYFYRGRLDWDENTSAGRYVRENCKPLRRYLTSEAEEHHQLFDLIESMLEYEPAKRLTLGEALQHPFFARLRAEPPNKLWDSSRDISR

[8] = molecular target: Serine/threonine-protein kinase DCLK1 (Homo sapiens) (UniProt O15075); settings: Compound concentration 1000.0 nM
[9] = molecular target: Dual specificity tyrosine-phosphorylation-regulated kinase 1A (Homo sapiens) (UniProt Q13627); settings: Compound concentration 1000.0 nM
[10] = system: Epidermal growth factor receptor (Homo sapiens), P00533 [L858R,T790M]; settings: Compound concentration 1000.0 nM
[11] = molecular target: Mitogen-activated protein kinase 7 (Homo sapiens) (UniProt Q13164); settings: Compound concentration 1000.0 nM
[12] = molecular target: Fibroblast growth factor receptor 4 (Homo sapiens) (UniProt P22455); settings: Compound concentration 1000.0 nM
[13] = molecular target: Receptor-type tyrosine-protein kinase FLT3 (Homo sapiens) (UniProt P36888); settings: Compound concentration 1000.0 nM
[14] = molecular target: Tyrosine-protein kinase JAK1 (Homo sapiens) (UniProt P23458); settings: Compound concentration 1000.0 nM
[15] = molecular target: Tyrosine-protein kinase JAK3 (Homo sapiens) (UniProt P52333); settings: Compound concentration 1000.0 nM
[16] = molecular target: Mast/stem cell growth factor receptor Kit (Homo sapiens) (UniProt P10721); settings: Compound concentration 1000.0 nM
[17] = molecular target: Serine/threonine-protein kinase 10 (Homo sapiens) (UniProt O94804); settings: Compound concentration 1000.0 nM
[18] = molecular target: Mitogen-activated protein kinase kinase kinase 13 (Homo sapiens) (UniProt O43283); settings: Compound concentration 1000.0 nM
[19] = molecular target: Mitogen-activated protein kinase kinase kinase 2 (Homo sapiens) (UniProt Q9Y2U5); settings: Compound concentration 1000.0 nM
[20] = molecular target: MAP kinase-activated protein kinase 2 (Homo sapiens) (UniProt P49137); settings: Compound concentration 1000.0 nM
Chain of MAP kinase-activated protein kinase 2 (Homo sapiens) (P49137 whole entry, looked up): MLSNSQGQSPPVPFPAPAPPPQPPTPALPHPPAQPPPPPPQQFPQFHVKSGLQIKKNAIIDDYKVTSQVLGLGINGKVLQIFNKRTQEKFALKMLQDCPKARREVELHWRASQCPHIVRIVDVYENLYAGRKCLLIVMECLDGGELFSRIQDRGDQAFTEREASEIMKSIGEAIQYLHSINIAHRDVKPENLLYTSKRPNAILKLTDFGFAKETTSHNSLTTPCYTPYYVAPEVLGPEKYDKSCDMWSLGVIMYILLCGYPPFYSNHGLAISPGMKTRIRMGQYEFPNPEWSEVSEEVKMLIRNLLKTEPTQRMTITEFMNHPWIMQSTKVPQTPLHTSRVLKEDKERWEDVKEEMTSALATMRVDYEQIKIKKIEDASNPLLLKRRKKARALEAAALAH

[21] = molecular target: MAP/microtubule affinity-regulating kinase 4 (Homo sapiens) (UniProt Q96L34); settings: Compound concentration 1000.0 nM
[22] = system: Hepatocyte growth factor receptor (Homo sapiens), P08581 [Y1235D]; settings: Compound concentration 1000.0 nM
[23] = molecular target: Myosin light chain kinase family member 4 (Homo sapiens) (UniProt Q86YV6); settings: Compound concentration 1000.0 nM
[24] = molecular target: Serine/threonine-protein kinase Nek5 (Homo sapiens) (UniProt Q6P3R8); settings: Compound concentration 1000.0 nM
[25] = molecular target: Serine/threonine-protein kinase OSR1 (Homo sapiens) (UniProt O95747); settings: Compound concentration 1000.0 nM
[26] = molecular target: Cyclin-dependent kinase 17 (Homo sapiens) (UniProt Q00537); settings: Compound concentration 1000.0 nM
Chain of Cyclin-dependent kinase 17 (Homo sapiens) (Q00537 whole entry, looked up): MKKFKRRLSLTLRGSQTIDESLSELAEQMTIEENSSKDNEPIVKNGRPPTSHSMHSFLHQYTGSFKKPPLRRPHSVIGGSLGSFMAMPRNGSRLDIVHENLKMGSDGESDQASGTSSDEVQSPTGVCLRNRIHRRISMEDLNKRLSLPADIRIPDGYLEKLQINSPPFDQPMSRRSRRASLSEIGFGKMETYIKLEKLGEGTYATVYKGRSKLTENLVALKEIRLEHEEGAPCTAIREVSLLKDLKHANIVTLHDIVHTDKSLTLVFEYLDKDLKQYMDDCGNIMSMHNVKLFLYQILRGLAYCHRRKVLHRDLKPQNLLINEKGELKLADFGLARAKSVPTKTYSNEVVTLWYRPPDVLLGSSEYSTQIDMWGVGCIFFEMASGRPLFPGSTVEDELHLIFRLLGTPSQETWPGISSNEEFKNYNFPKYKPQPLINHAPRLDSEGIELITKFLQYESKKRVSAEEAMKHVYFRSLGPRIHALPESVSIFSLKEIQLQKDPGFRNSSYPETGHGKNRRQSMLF

[27] = molecular target: Platelet-derived growth factor receptor alpha (Homo sapiens) (UniProt P16234); settings: Compound concentration 1000.0 nM
Chain of Platelet-derived growth factor receptor alpha (Homo sapiens) (P16234 whole entry, the tested form may be a part): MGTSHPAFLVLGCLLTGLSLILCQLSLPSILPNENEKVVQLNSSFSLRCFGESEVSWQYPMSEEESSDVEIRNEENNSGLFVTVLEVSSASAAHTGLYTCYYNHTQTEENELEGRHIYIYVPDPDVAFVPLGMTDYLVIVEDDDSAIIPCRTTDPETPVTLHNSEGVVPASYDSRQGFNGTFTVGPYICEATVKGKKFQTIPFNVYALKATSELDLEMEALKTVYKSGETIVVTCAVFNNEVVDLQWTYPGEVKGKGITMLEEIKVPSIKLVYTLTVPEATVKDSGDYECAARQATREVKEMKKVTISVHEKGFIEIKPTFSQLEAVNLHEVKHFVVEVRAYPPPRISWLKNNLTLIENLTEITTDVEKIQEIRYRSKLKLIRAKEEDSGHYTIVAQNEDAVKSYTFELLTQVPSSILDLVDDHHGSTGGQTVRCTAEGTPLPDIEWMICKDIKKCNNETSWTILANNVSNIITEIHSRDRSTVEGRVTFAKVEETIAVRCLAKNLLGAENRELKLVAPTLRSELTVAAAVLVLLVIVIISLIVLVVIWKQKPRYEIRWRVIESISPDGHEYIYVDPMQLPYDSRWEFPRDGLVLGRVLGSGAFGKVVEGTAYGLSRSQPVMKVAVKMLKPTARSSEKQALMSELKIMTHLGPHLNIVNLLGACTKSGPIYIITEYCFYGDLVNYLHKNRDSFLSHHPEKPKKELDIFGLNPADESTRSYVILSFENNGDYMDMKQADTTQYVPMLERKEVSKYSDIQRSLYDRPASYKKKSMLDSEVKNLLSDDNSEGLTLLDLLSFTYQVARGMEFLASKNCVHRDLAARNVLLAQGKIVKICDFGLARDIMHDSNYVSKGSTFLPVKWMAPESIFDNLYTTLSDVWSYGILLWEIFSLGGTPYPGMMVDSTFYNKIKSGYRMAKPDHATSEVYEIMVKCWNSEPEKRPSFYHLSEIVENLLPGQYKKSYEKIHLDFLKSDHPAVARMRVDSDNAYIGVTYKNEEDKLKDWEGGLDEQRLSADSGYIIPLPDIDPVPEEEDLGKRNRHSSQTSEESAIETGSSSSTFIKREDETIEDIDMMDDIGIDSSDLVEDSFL

[28] = molecular target: Phosphatidylinositol 4-phosphate 3-kinase C2 domain-containing subunit beta (Homo sapiens) (UniProt O00750); settings: Compound concentration 1000.0 nM
[29] = molecular target: Phosphatidylinositol 4,5-bisphosphate 3-kinase catalytic subunit beta isoform (Homo sapiens) (UniProt P42338); settings: Compound concentration 1000.0 nM
[30] = molecular target: Phosphatidylinositol 4-kinase beta (Homo sapiens) (UniProt Q9UBF8); settings: Compound concentration 1000.0 nM
[31] = molecular target: Protein kinase C eta type (Homo sapiens) (UniProt P24723); settings: Compound concentration 1000.0 nM
[32] = molecular target: Serine/threonine-protein kinase D2 (Homo sapiens) (UniProt Q9BZL6); settings: Compound concentration 1000.0 nM
[33] = molecular target: STE20-like serine/threonine-protein kinase (Homo sapiens) (UniProt Q9H2G2); settings: Compound concentration 1000.0 nM
[34] = molecular target: SRSF protein kinase 2 (Homo sapiens) (UniProt P78362); settings: Compound concentration 1000.0 nM
[35] = molecular target: SRSF protein kinase 3 (Homo sapiens) (UniProt Q9UPE1); settings: Compound concentration 1000.0 nM
[36] = molecular target: Serine/threonine-protein kinase 33 (Homo sapiens) (UniProt Q9BYT3); settings: Compound concentration 1000.0 nM
[37] = molecular target: Serine/threonine-protein kinase 36 (Homo sapiens) (UniProt Q9NRP7); settings: Compound concentration 1000.0 nM
[38] = molecular target: Dual specificity testis-specific protein kinase 1 (Homo sapiens) (UniProt Q15569); settings: Compound concentration 1000.0 nM
[39] = molecular target: Transient receptor potential cation channel subfamily M member 6 (Homo sapiens) (UniProt Q9BX84); settings: Compound concentration 1000.0 nM
Chain of Transient receptor potential cation channel subfamily M member 6 (Homo sapiens) (Q9BX84 whole entry): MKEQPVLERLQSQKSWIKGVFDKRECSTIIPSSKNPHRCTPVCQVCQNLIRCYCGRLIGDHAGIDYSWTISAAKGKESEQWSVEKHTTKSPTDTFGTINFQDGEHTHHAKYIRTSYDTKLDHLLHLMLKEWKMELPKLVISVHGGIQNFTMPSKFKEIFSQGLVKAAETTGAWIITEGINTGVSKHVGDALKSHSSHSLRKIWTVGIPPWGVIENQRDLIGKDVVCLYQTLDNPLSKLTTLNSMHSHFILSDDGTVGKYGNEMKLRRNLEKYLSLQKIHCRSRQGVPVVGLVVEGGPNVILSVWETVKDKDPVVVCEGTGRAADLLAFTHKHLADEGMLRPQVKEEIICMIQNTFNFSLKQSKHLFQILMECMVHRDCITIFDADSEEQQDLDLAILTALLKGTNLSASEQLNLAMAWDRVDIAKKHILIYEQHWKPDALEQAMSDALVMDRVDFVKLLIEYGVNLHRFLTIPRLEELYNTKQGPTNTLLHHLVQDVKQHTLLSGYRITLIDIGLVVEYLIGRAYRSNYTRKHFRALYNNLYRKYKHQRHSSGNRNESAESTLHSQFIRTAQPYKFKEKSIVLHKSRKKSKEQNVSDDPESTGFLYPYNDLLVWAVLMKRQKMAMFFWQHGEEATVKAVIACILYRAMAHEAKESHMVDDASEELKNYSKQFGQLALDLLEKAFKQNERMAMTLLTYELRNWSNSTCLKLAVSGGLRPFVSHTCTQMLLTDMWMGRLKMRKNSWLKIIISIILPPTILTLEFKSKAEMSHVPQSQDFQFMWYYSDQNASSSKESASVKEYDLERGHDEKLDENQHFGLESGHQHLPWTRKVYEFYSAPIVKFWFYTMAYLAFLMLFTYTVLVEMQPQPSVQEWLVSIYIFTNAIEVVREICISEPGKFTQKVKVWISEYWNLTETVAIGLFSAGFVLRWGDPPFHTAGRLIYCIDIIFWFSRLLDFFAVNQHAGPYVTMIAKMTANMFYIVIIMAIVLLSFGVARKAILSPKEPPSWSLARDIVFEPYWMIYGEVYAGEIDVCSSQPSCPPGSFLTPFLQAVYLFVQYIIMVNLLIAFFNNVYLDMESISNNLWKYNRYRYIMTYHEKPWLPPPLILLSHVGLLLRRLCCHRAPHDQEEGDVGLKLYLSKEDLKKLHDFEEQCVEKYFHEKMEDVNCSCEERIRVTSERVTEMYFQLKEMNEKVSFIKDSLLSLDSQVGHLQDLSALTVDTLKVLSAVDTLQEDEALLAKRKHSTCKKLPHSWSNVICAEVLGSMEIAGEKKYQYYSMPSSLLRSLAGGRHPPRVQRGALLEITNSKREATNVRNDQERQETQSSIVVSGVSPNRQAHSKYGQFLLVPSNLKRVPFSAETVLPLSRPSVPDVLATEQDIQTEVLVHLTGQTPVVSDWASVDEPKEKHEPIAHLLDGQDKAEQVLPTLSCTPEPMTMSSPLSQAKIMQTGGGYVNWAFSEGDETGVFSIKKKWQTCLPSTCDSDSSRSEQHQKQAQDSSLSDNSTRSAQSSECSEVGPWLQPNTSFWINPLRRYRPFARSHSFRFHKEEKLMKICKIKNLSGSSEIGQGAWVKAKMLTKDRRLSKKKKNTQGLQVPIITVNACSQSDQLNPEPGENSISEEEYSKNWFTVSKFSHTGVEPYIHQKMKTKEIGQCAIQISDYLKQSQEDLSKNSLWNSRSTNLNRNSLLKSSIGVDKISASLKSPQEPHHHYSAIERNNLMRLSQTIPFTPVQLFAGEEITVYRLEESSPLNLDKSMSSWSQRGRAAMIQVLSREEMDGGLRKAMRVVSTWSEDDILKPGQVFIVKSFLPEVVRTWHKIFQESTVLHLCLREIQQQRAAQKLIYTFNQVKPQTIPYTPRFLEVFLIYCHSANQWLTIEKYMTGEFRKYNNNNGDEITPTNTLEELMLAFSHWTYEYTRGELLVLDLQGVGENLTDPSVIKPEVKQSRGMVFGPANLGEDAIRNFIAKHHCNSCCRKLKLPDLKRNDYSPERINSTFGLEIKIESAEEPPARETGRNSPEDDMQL

[40] = molecular target: Tyrosine-protein kinase TXK (Homo sapiens) (UniProt P42681); settings: Compound concentration 1000.0 nM
Chain of Tyrosine-protein kinase TXK (Homo sapiens) (P42681 whole entry): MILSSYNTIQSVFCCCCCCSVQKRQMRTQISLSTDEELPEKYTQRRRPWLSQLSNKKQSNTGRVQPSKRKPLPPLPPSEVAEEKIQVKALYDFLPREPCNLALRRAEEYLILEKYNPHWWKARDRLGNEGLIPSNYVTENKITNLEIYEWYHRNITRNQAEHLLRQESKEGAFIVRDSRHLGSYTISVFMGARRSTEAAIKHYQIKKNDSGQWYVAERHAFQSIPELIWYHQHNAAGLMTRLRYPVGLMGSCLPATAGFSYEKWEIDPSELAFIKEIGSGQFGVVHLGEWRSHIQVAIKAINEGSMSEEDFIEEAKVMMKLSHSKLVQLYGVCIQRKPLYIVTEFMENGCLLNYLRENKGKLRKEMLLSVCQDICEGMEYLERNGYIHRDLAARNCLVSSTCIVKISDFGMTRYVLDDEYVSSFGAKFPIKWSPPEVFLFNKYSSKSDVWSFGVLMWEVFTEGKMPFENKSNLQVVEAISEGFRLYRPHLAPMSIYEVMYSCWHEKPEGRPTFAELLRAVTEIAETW

[41] = molecular target: Vascular endothelial growth factor receptor 2 (Homo sapiens) (UniProt P35968); settings: Compound concentration 1000.0 nM
[42] = molecular target: Serine/threonine-protein kinase WNK4 (Homo sapiens) (UniProt Q96J92); settings: Compound concentration 1000.0 nM
[43] = molecular target: Sodium-dependent serotonin transporter (Homo sapiens, UniProt P31645); settings: Compound concentration 10.0 uM
[44] = molecular target: Mu-type opioid receptor (Homo sapiens) (UniProt P35372); settings: Compound concentration 10.0 uM
[45] = molecular target: Alpha-2C adrenergic receptor (Homo sapiens) (UniProt P18825); settings: Compound concentration 10.0 uM

COc1cccc(CNC(=O)c2nc3scc(COCc4ccc(C(=O)O)cc4)c3c(=O)[nH]2)c1 [T-26c]
inactive: residual activity [1] 93.8% | residual activity [2] 92% | residual activity [3] 63% | residual activity [4] 100% | residual activity [5] 100% | residual activity [6] 91.1% | residual activity [7] 92.4% | residual activity [8] 60.4% | residual activity [9] 89.5% | residual activity [10] 58.6% | residual activity [11] 99.3% | residual activity [12] 91.4% | residual activity [13] 62.5% | residual activity [14] 76% | residual activity [15] 78.4% | residual activity [16] 81.3% | residual activity [17] 67.8% | residual activity [18] 61.5% | residual activity [19] 65.5% | residual activity [20] 64.3% | residual activity [21] 89.2% | residual activity [22] 100% | residual activity [23] 100% | residual activity [24] 100% | residual activity [25] 71.9% | residual activity [26] 87.8% | residual activity [27] 56.3% | residual activity [28] 80.6% | residual activity [29] 54.8% | residual activity [30] 59.9% | residual activity [31] 83.7% | residual activity [32] 100% | residual activity [33] 100% | residual activity [34] 100% | residual activity [35] 70.1% | residual activity [36] 100% | residual activity [37] 100% | residual activity [38] 82.8% | residual activity [39] 81.8% | residual activity [40] 87.7% | residual activity [41] 70% | residual activity [42] 100% | inhibition [43] -3.64% | inhibition [44] -3.34% | inhibition [45] 4.23%
